Laboratory results reported in patent US10556902B2 (Asceneuron SA, priority 2016, dated 2020).

Molecular target: His-Tagged hOGA (human O-GlcNAcase) (Homo sapiens (Human), UniProt O60502)
Experiment: Human O-GlcNAcase enzyme inhibition assay;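 also: reactions contained 20 nM His-tagged hOGA enzyme with 10 µM FL-GlcNAc substrate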
Assay type: biochemical
Settings: OGA enzyme inhibition assay; FL-GlcNAc substrate, pH 6.5; activity classes defined in μM; read-out: OGA IC50
Protocol: Then, 20 nM of His-Tagged hOGA and 10 μM of FL-GlcNAc (Fluorescein mono-beta-D-(2-deoxy-2-N-acetyl) glucopyranoside; Marker Gene Technologies Inc, M1485) were added to the 384-well plate for a final volume of 20 μl.

His-Tagged hOGA (human O-GlcNAcase), sequence (O60502 whole entry): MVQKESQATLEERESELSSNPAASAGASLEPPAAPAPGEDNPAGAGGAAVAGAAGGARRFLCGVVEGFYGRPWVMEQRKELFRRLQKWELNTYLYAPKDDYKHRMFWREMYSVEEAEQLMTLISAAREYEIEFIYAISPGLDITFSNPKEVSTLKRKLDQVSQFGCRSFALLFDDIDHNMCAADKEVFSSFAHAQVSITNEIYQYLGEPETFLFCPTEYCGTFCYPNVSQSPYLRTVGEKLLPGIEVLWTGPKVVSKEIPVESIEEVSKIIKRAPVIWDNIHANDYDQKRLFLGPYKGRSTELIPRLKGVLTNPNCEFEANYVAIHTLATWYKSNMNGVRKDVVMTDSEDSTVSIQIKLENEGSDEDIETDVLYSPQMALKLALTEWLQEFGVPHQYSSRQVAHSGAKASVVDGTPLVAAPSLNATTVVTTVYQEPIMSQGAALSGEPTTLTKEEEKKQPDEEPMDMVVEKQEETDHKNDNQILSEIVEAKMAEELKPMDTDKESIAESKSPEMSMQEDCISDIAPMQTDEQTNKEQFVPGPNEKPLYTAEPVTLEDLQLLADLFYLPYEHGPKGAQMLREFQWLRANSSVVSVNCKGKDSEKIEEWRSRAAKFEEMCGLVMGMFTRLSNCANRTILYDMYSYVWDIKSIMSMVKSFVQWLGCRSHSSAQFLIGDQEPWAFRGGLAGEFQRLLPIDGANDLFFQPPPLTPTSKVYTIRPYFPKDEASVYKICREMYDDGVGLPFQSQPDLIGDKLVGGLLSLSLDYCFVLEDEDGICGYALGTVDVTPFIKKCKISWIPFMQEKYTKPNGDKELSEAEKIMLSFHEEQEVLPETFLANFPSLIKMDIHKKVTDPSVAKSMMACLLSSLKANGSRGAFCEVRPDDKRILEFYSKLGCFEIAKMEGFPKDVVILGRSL

Row | Compound | IC50
1 | CC(=O)N1CCc2nc(N3CCN(C(C)c4ccc5nccnc5c4)CC3)ncc2C1 (racemic) [Example 6, 1-(2-(4-(1-(quinoxalin-6-yl)ethyl)piperazin-1-yl)-7,8-dihydropyrido[4,3-d]pyrimidin-6(5H)-yl)ethan-1-one] | 0.05 to 0.2 µM
2 | CC(c1ccc2nccnc2c1)N1CCN(c2ncc3c(n2)CCNC3)CC1 (racemic) [Example 8, 2-(4-(1-(quinoxalin-6-yl)ethyl)piperazin-1-yl)-5,6,7,8-tetrahydropyrido [4,3-d] pyrimidine] | < 0.05 µM
3 | CC(c1ccc2nccnc2c1)N1CCN(c2ncc3c(n2)CCN(C)C3)CC1 (racemic) [Example 9, 6-methyl-2-(4-(1-(quinoxalin-6-yl)ethyl)piperazin-1-yl)-5,6,7,8-tetrahydropyrido[4,3-d]pyrimidine] | < 0.05 µM
4 | CC(=O)N1CCc2nc(N3CCN(C(C)c4ccc5c(c4)OCC5)CC3)sc2C1 (racemic) [Example 10, 1-(2-(4-(1-(2,3-dihydrobenzofuran-6-yl)ethyl)piperazin-1-yl)-6,7-dihydrothiazolo[5,4-c]pyridin-5(4H)-yl)ethan-1-one] | < 0.05 µM
5 | CC(=O)N1CCc2nc(N3CCN(C(C)c4ccc5nccnc5c4)CC3)sc2C1 (racemic) [Example 11, 1-(2-(4-(1-(quinoxalin-6-yl)ethyl)piperazin-1-yl)-6,7-dihydrothiazolo[5,4-c]pyridin-5(4H)-yl)ethan-1-one] | 0.05 to 0.2 µM
6 | CC(c1ccc2c(c1)OCC2)N1CCN(c2nc3c(s2)C(=O)N(C)CC3)CC1 (racemic) [Example 13, 2-(4-(1-(2,3-dihydrobenzofuran-6-yl)ethyl)piperazin-1-yl)-5-methyl-6,7-dihydrothiazolo[5,4-c]pyridin-4(5H)-one] | < 0.05 µM
7 | CC(c1ccc2nccnc2c1)N1CCN(c2nc3c(s2)C(=O)N(C)CC3)CC1 (racemic) [Example 14, 5-methyl-2-(4-(1-(quinoxalin-6-yl)ethyl)piperazin-1-yl)-6,7-dihydrothiazolo[5,4-c]pyridin-4(5H)-one] | 0.2 to 1 µM
8 | CC(c1ccc2c(c1)OCC2)N1CCN(c2nc3c(s2)CNCC3)CC1 (racemic) [Example 15, 2-(4-(1-(2,3-dihydrobenzofuran-6-yl)ethyl)piperazin-1-yl)-4,5,6,7-tetrahydrothiazolo[5,4-c]pyridine] | < 0.05 µM
9 | CC(c1ccc2c(c1)OCC2)N1CCN(c2nc3c(s2)CN(C)CC3)CC1 (racemic) [Example 16, 2-(4-(1-(2,3-dihydrobenzofuran-6-yl)ethyl)piperazin-1-yl)-5-methyl-4,5,6,7-tetrahydrothiazolo[5,4-c]pyridine] | < 0.05 µM
10 | CC(c1ccc2nccnc2c1)N1CCN(c2nc3c(s2)CNCC3)CC1 (racemic) [Example 19, 2-(4-(1-(quinoxalin-6-yl)ethyl)piperazin-1-yl)-4,5,6,7-tetrahydrothiazolo[5,4-c]pyridine] | 0.05 to 0.2 µM
11 | CC(c1ccc2nccnc2c1)N1CCN(c2nc3c(s2)CN(C)CC3)CC1 (racemic) [Example 20, 5-Methyl-2-(4-(1-(quinoxalin-6-yl)ethyl)piperazin-1-yl)-4,5,6,7-tetrahydrothiazolo[5,4-c]pyridine] | 0.05 to 0.2 µM
12 | CC(c1ccc2nccnc2c1)N1CCN(c2n[nH]c(=O)s2)CC1 (racemic) [Example 21, 5-(4-(1-(quinoxalin-6-yl)ethyl)piperazin-1-yl)-1,3,4-thiadiazol-2(3H)-one] | 0.05 to 0.2 µM
13 | CC(c1ccc2nccnc2c1)N1CCC(c2n[nH]c(=O)o2)CC1 (racemic) [Example 22, 5-(1-(1-(quinoxalin-6-yl)ethyl)piperidin-4-yl)-1,3,4-oxadiazol-2(3H)-one] | 0.2 to 1 µM
14 | Cc1nnc(C2CCN(C(C)c3ccc4c(c3)OCC4)CC2)o1 (racemic) [Example 23, 2-(1-(1-(2,3-dihydrobenzofuran-6-yl)ethyl)piperidin-4-yl)-5-methyl-1,3,4-oxadiazole] | < 0.05 µM
15 | Cc1nnc(C2CCN(C(C)c3ccc4nccnc4c3)CC2)o1 (racemic) [Example 24, 2-methyl-5-(1-(1-(quinoxalin-6-yl)ethyl)piperidin-4-yl)-1,3,4-oxadiazole] | 0.2 to 1 µM
16 | CC(=O)Nc1cnn(C2CCN(C(C)c3ccc4c(c3)OCC4)CC2)c1 (racemic) [Example 25, N-(1-(1-(1-(2,3-dihydrobenzofuran-6-yl)ethyl)piperidin-4-yl)-1H-pyrazol-4-yl)acetamide] | 0.05 to 0.2 µM
17 | CC(=O)Nc1cnn(C2CCN(C(C)c3ccc4nccnc4c3)CC2)c1 (racemic) [Example 27, N-(1-(1-(1-(quinoxalin-6-yl)ethyl)piperidin-4-yl)-1H-pyrazol-4-yl)acetamide] | 1 to 10 µM
18 | CC(c1ccc2c(c1)OCC2)N1CCC(n2cc(CO)cn2)CC1 (racemic) [Example 28, (1-(1-(1-(2,3-dihydrobenzofuran-6-yl)ethyl)piperidin-4-yl)-1H-pyrazol-4-yl) methanol] | 0.2 to 1 µM
19 | CC(c1ccc2c(c1)OCC2)N1CCC(n2cc(C(F)(F)F)cn2)CC1 (racemic) [Example 29, 1-(1-(2,3-Dihydrobenzofuran-6-yl)ethyl)-4-(4-(trifluoromethyl)-1H-pyrazol-1-yl) piperidine] | 0.2 to 1 µM
20 | CC(c1ccc2c(c1)OCC2)N1CCC(n2cc(F)cn2)CC1 (racemic) [Example 30, 1-(1-(2,3-dihydrobenzofuran-6-yl)ethyl)-4-(4-fluoro-1H-pyrazol-1-yl)piperidine] | 0.2 to 1 µM

Row | Compound | IC50
21 | CCOC(=O)c1cnn(C2CCN(C(C)c3ccc4c(c3)OCC4)CC2)c1 (racemic) [Example 32, Ethyl 1-(1-(1-(2,3-dihydrobenzofuran-6-yl)ethyl)piperidin-4-yl)-1H-pyrazole-4-carboxylate] | 0.05 to 0.2 µM
22 | CC(c1ccc2c(c1)OCC2)N1CCC(n2cc(S(C)(=O)=O)cn2)CC1 (racemic) [Example 34, 1-(1-(2,3-dihydrobenzofuran-6-yl)ethyl)-4-(4-(methylsulfonyl)-1H-pyrazol-1-yl)piperidine] | 0.2 to 1 µM
23 | CC(O)c1ccc(N2CCN(C(C)c3ccc4c(c3)OCC4)CC2)nn1 (racemic) [Example 35, 1-(6-(4-(1-(2,3-dihydrobenzofuran-6-yl)ethyl)piperazin-1-yl)pyridazin-3-yl)ethan-1-ol] | < 0.05 µM
24 | CC(O)c1ccc(N2CCN(C(C)c3ccc4nccnc4c3)CC2)nn1 (racemic) [Example 36, 1-(6-(4-(1-(quinoxalin-6-yl)ethyl)piperazin-1-yl)pyridazin-3-yl)ethan-1-ol] | 0.2 to 1 µM
25 | CC(c1ccc2nccnc2c1)N1CCN(c2nnc(CO)s2)CC1 (racemic) [Example 37, (5-(4-(1-(quinoxalin-6-yl)ethyl)piperazin-1-yl)-1,3,4-thiadiazol-2-yl)methanol] | 0.2 to 1 µM
26 | CC(c1ccc2c(c1)OCC2)N1CCN(c2ccc(C(F)(F)F)nn2)CC1 (racemic) [Example 40, 3-(4-(1-(2,3-dihydrobenzofuran-6-yl)ethyl)piperazin-1-yl)-6-(trifluoromethyl)pyridazine] | < 0.05 µM
27 | CC(c1ccc2nccnc2c1)N1CCN(c2ccc(F)nn2)CC1 (racemic) [Example 41, 6-(1-(4-(6-Fluoropyridazin-3-yl)piperazin-1-yl)ethyl)quinoxaline] | 0.2 to 1 µM
28 | CC(c1ccc2nccnc2c1)N1CCN(c2ccc(C(F)(F)F)nn2)CC1 (racemic) [Example 42, 6-(1-(4-(6-(trifluoromethyl)pyridazin-3-yl)piperazin-1-yl)ethyl)quinoxaline] | 0.2 to 1 µM
29 | CC(c1ccc2nccnc2c1)N1CCN(c2ccc(I)nn2)CC1 (racemic) [Example 43] | 0.2 to 1 µM
30 | Cc1ccc(N2CCN(C(C)c3ccc4nccnc4c3)CC2)nn1 (racemic) [Example 44, 6-(1-(4-(6-Methylpyridazin-3-yl)piperazin-1-yl)ethyl)quinoxaline] | 0.2 to 1 µM
31 | CC(c1ccc2c(c1)OCC2)N1CCN(c2ccc(S(C)(=O)=O)nn2)CC1 (racemic) [Example 45, 3-(4-(1-(2,3-dihydrobenzofuran-6-yl)ethyl)piperazin-1-yl)-6-(methylsulfonyl)pyridazine] | < 0.05 µM
32 | CC(O)c1ccc(N2CCN(C(C)c3ccc4c(c3)OCC4)CC2)nc1 (racemic) [Example 47, 1-(6-(4-(1-(2,3-dihydrobenzofuran-6-yl)ethyl)piperazin-1-yl)pyridin-3-yl)ethan-1-ol] | < 0.05 µM
33 | CC(c1ccc2c(c1)OCC2)N1CCN(c2ccc(C(C)(C)O)cn2)CC1 (racemic) [Example 48, 2-(6-(4-(1-(2,3-dihydrobenzofuran-6-yl)ethyl)piperazin-1-yl)pyridin-3-yl)propan-2-ol] | < 0.05 µM
34 | CC(C)C(O)c1ccc(N2CCN(C(C)c3ccc4c(c3)OCC4)CC2)nc1 (racemic) [Example 49, 1-(6-(4-(1-(2,3-dihydrobenzofuran-6-yl)ethyl)piperazin-1-yl)pyridin-3-yl)-2-methylpropan-1-ol] | < 0.05 µM
35 | CC(c1ccc2c(c1)OCC2)N1CCN(c2ccc(C(O)C(F)(F)F)cn2)CC1 (racemic) [Example 50, 1-(6-(4-(1-(2,3-dihydrobenzofuran-6-yl)ethyl)piperazin-1-yl)pyridin-3-yl)-2,2,2-trifluoroethan-1-ol] | < 0.05 µM
36 | CC(c1ccc2nccnc2c1)N1CCN(c2ccc(C(C)(C)O)cn2)CC1 (racemic) [Example 51, 2-(6-(4-(1-(quinoxalin-6-yl)ethyl)piperazin-1-yl)pyridin-3-yl) propan-2-ol] | 0.05 to 0.2 µM
37 | CC(O)c1ccc(N2CCN(C(C)c3ccc4nccnc4c3)CC2)nc1 (racemic) [Example 52, 1-(6-(4-(1-(quinoxalin-6-yl)ethyl)piperazin-1-yl)pyridin-3-yl)ethan-1-ol] | 0.2 to 1 µM
38 | COc1ccc(N2CCN(C(C)c3ccc4nccnc4c3)CC2)cn1 (racemic) [Example 53, 6-(1-(4-(6-methoxypyridin-3-yl)piperazin-1-yl)ethyl)quinoxaline] | 0.2 to 1 µM
39 | CC(c1ccc2nccnc2c1)N1CCN(c2ccc(=O)[nH]c2)CC1 (racemic) [Example 54, 5-(4-(1-(quinoxalin-6-yl)ethyl)piperazin-1-yl)pyridin-2(1H)-one] | 0.2 to 1 µM
40 | CC(C)C(O)c1ccc(N2CCN(C(C)c3ccc4nccnc4c3)CC2)nc1 (racemic) [Example 55, 2-methyl-1-(6-(4-(1-(quinoxalin-6-yl)ethyl)piperazin-1-yl)pyridin-3-yl)propan-1-ol] | 0.2 to 1 µM
